Data from patent US12691104B2, “Compositions containing nicotinamide and vitamin B6 and methods of using such compositions for treating sarcopenia and frailty” (SOCIETE DES PRODUITS NESTLE S.A., priority 2020, dated 2026).

System: Human primary myoblasts
Assay: Myogenic amplification and commitment of muscle stem cells (Pax7/MyoD staining, image quantification)
Format: cell-based
Conditions: donors 1 and 2 pooled, dose response, 96 hours, control DMSO 1%; for proportion of MyoD+ cells, fold change compared to the control condition: FIG. 1B/2B
Experimental: Human Skeletal Muscle Myoblasts were purchased from Lonza (https://bioscience.lonza.com). These cells were isolated from the upper arm or leg muscle tissue of normal donors and used after the second passage. Several donors were tested to ensure cell viability and purity before selecting the final donors, which are a person (refer thereafter as Donor 1), a person (refer thereafter as Donor 2) and a person (refer thereafter as Donor 3). Human primary myoblasts were seeded in 384 well plates at a density of 1′000 cells per well in skeletal muscle growth medium (SKM-M, AMSbio). For treatment, compounds were directly added to the myoblast cultures 16 hours after initial plating. All cultures were then grown for 96 hours. Cells were stained for Pax7 and MyoD expression using antibodies directed against Pax7 and MyoD and counterstained with Hoechst 33342 to visualize cell nuclei. Pax7+ cells are defined as cells that express Pax7 regardless of MyoD expression. […] Image acquisition was performed using the ImageXpress (Molecular Devices) platform. Custom module analysis based on Multi-Wavelength Cell Scoring of the MetaXpress software was used for quantification. *, **, ***, **** indicates difference from the control, One-way ANOVA, with p<0.05, p<0.01, p<0.001, p<0.0001, respectively. Data are presented as Mean+/— SEM. Human primary myoblasts from different donors (donor 1, donor 2 or donor 3) were seeded in 384 well plates at a density of 1′000 cells per well in skeletal muscle growth medium (SKM-M, AMSbio). For treatment, compounds were directly added to the myoblast cultures 16 hours after initial plating. All cultures were then grown for 96 hours. Cells were stained for Pax7 and MyoD expression using antibodies directed against Pax7 and MyoD and counterstained with Hoechst 33342 to visualize cell nuclei. Pax7+ cells are defined as cells that express Pax7 regardless of MyoD expression. […] Custom module analysis based on Multi-Wavelength Cell Scoring of the MetaXpress software was used for quantification. […]

| Structure (SMILES) | proportion of MyoD+ cells, fold change compared to the control condition | proportion of Pax7+ cells, fold change compared to the control condition (FIG. 1A/2A) |
| --- | --- | --- |
| Cc1ncc(CO)c(CO)c1O [Pyridoxine] | increasing the proportion of differentiating (MyoD+) cells in a dose dependent manner | – |
| NC(=O)c1cccnc1 [Nicotinamide] | increasing the proportion of both amplifying (Pax7+) and differentiating (MyoD+) cells in a dose dependent manner | increasing the proportion of both amplifying (Pax7+) and differentiating (MyoD+) cells in a dose dependent manner |
